According to patent publication US20100292279A1, “Bis-(Sulfonylamino) Derivatives in Therapy” (ASTRAZENECA AB, priority 2009, published 2010):

biological target: T1, human mPGES-1 (Homo sapiens, UniProt O14684); assay: Microsomal prostaglandin E synthase biochemical assay; conditions: microsome preparation containing human mPGES-1; substrate PGH2 10.8 μM, GSH 2.5 mM, pH 6.8; PGE2 by HTRF; average of at least n=2
T1 construct: host or cells: microsomes
T1 sequence (O14684 1-152): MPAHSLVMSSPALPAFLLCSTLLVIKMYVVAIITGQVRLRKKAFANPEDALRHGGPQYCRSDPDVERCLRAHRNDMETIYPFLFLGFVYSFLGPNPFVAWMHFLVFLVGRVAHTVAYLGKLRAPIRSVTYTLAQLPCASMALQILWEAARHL
Method: Compounds were tested as inhibitors of microsomal prostaglandin E synthase activity in microsomal prostaglandin E synthase assays and whole cell assays. These assays measure prostaglandin E2 (PGE2) synthesis which is taken as a measure of prostaglandin E synthase activity. Microsomal prostaglandin E synthase biochemical assays used microsomal prostaglandin E synthase-1 in microsomal preparations. The source of the microsomes can be for example interleukin-1β-stimulated human A549 cells (which express human mPGES-1) or Sf9 cells transfected with plasmids encoding human mPGES-1 cDNA.
A solution of test compound was added to a diluted microsome preparation containing is human mPGES-1 and pre-incubated for 15 minutes in potassium phosphate buffer pH 6.8 with cofactor glutathione (GSH). Corresponding solutions without test compound were used as positive controls, and corresponding solutions without test compound and without microsomes were used as negative controls. The enzymatic reaction was then started by addition of the substrate PGH2 in an organic solution (dry acetonitrile).
The reaction was stopped after one minute by adding an acidic solution (pH 1.9) of ferric chloride and citrate (final concentrations 7 mM and 47 mM respectively), by which the PGH2 was sequestered (the PGH2 is reduced to mainly 12-hydroxy heptadecatrineoic acid (12-HHT) which is not detected by the subsequent PGE2 detection step). The resulting solution was then pH neutralized by addition of potassium phosphate buffer, prior to diluting an aliquot of the resulting solution in a weak potassium phosphate buffer (50 mM, pH 6.8) containing 0.2% BSA (w/v). […] The PGE2 formed was quantified by use of a commercial HTRF based kit (catalogue #62PG2PEC or #62P2APEC from Cisbio International). 100% activity was defined as the PGE2 production in positive controls subtracted by the PGE2 production in the negative controls. IC50 values were then determined using standard procedures.

| IC50 | SMILES |
| --- | --- |
| 7.8 nM | Cc1ccc(C#Cc2ccc(C(=O)NS(=O)(=O)c3ccccc3S(N)(=O)=O)cc2OCCC(F)F)cc1 [Example 70, 3-(3,3-Difluoropropoxy)-N-(2-sulfamoylphenylsulfonyl)-4-(p-tolylethynyl)benzamide] |
| 31 nM | CC(C)C#Cc1ccc(C(=O)NS(=O)(=O)c2ccccc2S(N)(=O)=O)cc1OCCC(F)F [Example 71, 3-(3,3-Difluoropropoxy)-4-(3-methylbut-1-ynyl)-N-(2-sulfamoylphenylsulfonyl)benzamide] |
| 43 nM | CC(C)C#Cc1ccc(C(=O)NS(=O)(=O)c2ccccc2S(N)(=O)=O)cc1OCCCF [Example 72, 3-(3-Fluoropropoxy)-4-(3-methylbut-1-ynyl)-N-(2-sulfamoylphenylsulfonyl)benzamide] |
| 24 nM | COc1cc(C(=O)NS(=O)(=O)c2ccccc2S(N)(=O)=O)ccc1C#Cc1ccccc1 [Example 73, 3-Methoxy-4-(phenylethynyl)-N-(2-sulfamoylphenylsulfonyl)benzamide] |
| 190 nM | COc1cc(C(=O)NS(=O)(=O)c2ccccc2S(N)(=O)=O)ccc1C#CC(C)C [Example 74, 3-Methoxy-4-(3-methylbut-1-ynyl)-N-(2-sulfamoylphenylsulfonyl)benzamide] |
| 26 nM | NS(=O)(=O)c1cc(O)ccc1S(=O)(=O)NC(=O)c1ccc(-c2cc3ccccc3o2)cc1 [Example 75, 4-Hydroxy-benzene-1,2-disulfonic acid 2-amide 1-(4-benzofuran-2-yl-benzoylamide)] |
| 530 nM | COc1ccc(S(=O)(=O)NC(=O)c2ccc(-c3cc4ccccc4o3)cc2)c(S(N)(=O)=O)c1 [Example 76, 4-methoxy-benzene-1,2-disulfonic acid 2-amide 1-(4-benzofuran-2-yl-benzoylamide)] |
| 61 nM | CC(C)(C)C#Cc1ccc(C(=O)NS(=O)(=O)c2ccc(O)cc2S(N)(=O)=O)cc1 [Example 77, 4-Hydroxy-benzene-1,2-disulfonic acid 2-amide 1-[4-(3,3-dimethyl-but-1-ynyl)-benzoylamide]] |
| 2200 nM | COc1ccc(S(=O)(=O)NC(=O)c2ccc(C#CC(C)(C)C)cc2)c(S(N)(=O)=O)c1 [Example 78, 4-methoxy-benzene-1,2-disulfonic acid 2-amide 1-[4-(3,3-dimethyl-but-1-ynyl)-benzoylamide]] |

| SMILES | IC50 |
| --- | --- |
| NS(=O)(=O)c1ccccc1S(=O)(=O)NC(=O)c1ccc(C#CC2CCCC2)c(OCCCC(F)(F)F)c1 [Example 69, 4-(Cyclopentylethynyl)-N-(2-sulfamoylphenylsulfonyl)-3-(4,4,4-trifluorobutoxy)benzamide] | 11 nM |
